Where “and” joins values, the source holds several entries; their conditions need not be identical. Equal values may be shown once.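 Results reflect a 48-hour exposure of cells in 96-well plates to compound at five concentrations. GI50: concentration for 50% inhibition of growth. Definition used: TGI = concentration required for complete inhibition of growth.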
Tests used:
Experiment in all cases: NCI tumour cell line growth inhibition, 48 h
[1] = test system: A549 NSCLC
[2] = test system: HCC-2998 colon
[3] = test system: MCF7 breast
[4] = test system: OVCAR-5 ovarian
[5] = test system: PC-3 prostate
[6] = test system: SK-MEL-28 melanoma
[7] = test system: SK-OV-3 ovarian
[8] = test system: SR leukemia
[9] = test system: TK-10 renal
[10] = test system: UACC-257 melanoma

Structure (SMILES)	GI50 [1]	TGI [1]	GI50 [2] [µM]	TGI [2]	GI50 [3]	TGI [3]	GI50 [4]	TGI [4]	GI50 [5] [µM]	TGI [5]	GI50 [6]	TGI [6] [µM]	GI50 [7] [µM]	TGI [7]	GI50 [8]	TGI [8]	GI50 [9] [µM]	TGI [9]	GI50 [10]	TGI [10] [µM]
NC(=O)c1ccc(I)c([N+](=O)[O-])c1	> 94.5 µM	> 100 µM	50.4	> 100 µM	> 80.5 µM	> 100 µM	25.5 µM	> 68.1 µM	> 100	> 100 µM	98.7 µM	> 100	> 100	> 100 µM	32.8 µM	> 100 µM	> 100	> 100 µM	> 80.4 µM	> 100
COc1ccc2c(c1)C(=O)/C(=C/c1ccc(O)cc1)O2	25.7 µM	67.5 µM	17.3	33.6 µM	4.93 µM	18.3 µM	19.2 µM	38.5 µM	9.48	24.7 µM	14.3 µM	29.6	52.7	> 100 µM	1.79 µM	4.71 µM	15	31 µM	19.8 µM	35.2
CC[C@H](C)[C@H](NC(=O)c1ncccn1)C(=O)N(C)[C@H](C[C@@H](OC(C)=O)c1nc(C(=O)N[C@@H](Cc2ccccc2)C[C@H](C)C(=O)OC)cs1)C(C)C	6.23 µM	> 25 µM	6.48	> 25 µM	0.924 µM	> 25 µM	5.07 µM	> 25 µM	1.46	> 25 µM	3.51 µM	> 25	5.51	> 25 µM	0.213 µM	> 25 µM	16.6	> 25 µM	2.38 µM	> 25
COc1ccc(-c2c(NC(=O)Nc3ccc(Cl)c(C(F)(F)F)c3)cnn2-c2ccc(S(N)(=O)=O)cc2)cc1	3.46 µM	13.6 µM	3.13	8.85 µM	2.67 µM	9.22 µM	3.54 µM	14.4 µM	2.87	11.4 µM	3.73 µM	13.7	3.69	14 µM	1.99 µM	5.83 µM	3.85	15.3 µM	3.29 µM	12
C=C[C@@H]1CCC/C=C/[C@@H]2C[C@H](O)C[C@H]2[C@H](O)/C=C/C(=O)O1	0.469 µM	> 100 µM	0.409	2.92 µM	0.388 µM		0.664 µM	> 100 µM	0.785	> 100 µM	0.34 µM	1.2	0.709	> 100 µM	1.64 µM	> 28 µM	0.554	19.8 µM	0.317 µM	> 100
COC(=O)[C@@H](C)C[C@H](Cc1ccc(F)cc1)NC(=O)c1csc([C@@H](C[C@H](C(C)C)N(C)C(=O)[C@@H](NC(=O)[C@H]2CCCCN2C)C2CC2)OC(C)=O)n1	0.959 µM	> 25 µM	2.48	> 25 µM	0.0587 µM	> 25 µM	1.07 µM	> 25 µM	0.415	> 25 µM	1.05 µM	> 25	5.39	> 25 µM	0.0282 µM	> 25 µM	> 13.8	> 25 µM	> 15.5 µM	> 25
O=c1oc2ccc(F)cc2c(=O)n1-c1ccc(I)cc1F	2.4 µM	> 94.7 µM	3.1	9.85 µM	0.762 µM	9.03 µM	3.4 µM	> 54.5 µM	1.48	6.58 µM	0.392 µM	1.89	0.522	10.5 µM	0.388 µM	11.1 µM	1.06	17.5 µM	0.432 µM	4.79
O=c1cc(-c2ccccc2)oc2c(O)c(O)ccc12	7.22 µM	91.5 µM	23.8	> 100 µM	20 µM	> 100 µM	22 µM	> 100 µM	7.74	> 100 µM	11.4 µM	> 100	23.8	> 100 µM	3.35 µM	> 100 µM	7.5	71.1 µM	18.6 µM	88.5
COc1cc(OCCCN2CCCC2)ccc1Nc1ncc(Cl)c(Nc2ccccc2P(C)(C)=O)n1	2.14 µM	10.6 µM	2.65	25.7 µM	0.867 µM	19.3 µM	1.07 µM	22.5 µM	4.11	49.6 µM	6.34 µM	26.6	2.3	6.41 µM	0.0173 µM		0.983	4.91 µM	6.42 µM	24
O=C1NN(C(=O)c2ccccc2)C(c2ccc(Cl)c(Cl)c2)=C/C1=C\c1ccccc1[N+](=O)[O-]	2.11 µM	> 6.75 µM	1.81	5.48 µM	1.82 µM	> 6.75 µM	1.96 µM	> 6.75 µM	1.52	> 6.75 µM	2.72 µM	> 6.75	4	> 6.75 µM	2.07 µM	> 6.75 µM	4.26	> 6.75 µM	5.23 µM	> 6.75
COC(=O)[C@@H](C)C[C@H](Cc1ccccc1)NC(=O)c1csc([C@@H](C[C@H](C(C)C)N(C)C(=O)[C@@H](NC(=O)[C@H]2CCCCN2C)c2ccc(F)cc2)OC(C)=O)n1		25 µM and > 100 µM		25 µM and > 100 µM	0.00229 µM and 0.0025 µM	25 µM and > 100 µM		25 µM and > 100 µM		25 µM and 28.3 µM		> 100		25 µM and > 100 µM	0.00065 µM and 0.0025 µM	6.84 µM and 17.6 µM		25 µM and > 100 µM		> 100
C[C@]12CC[C@@H]3c4ccc(O)cc4CC[C@H]3[C@@H]1CC(Cc1ccccc1)(Cc1ccccc1)C2=O	18.5 µM	48.4 µM	4.04	14.2 µM	15.6 µM	46.8 µM	17.2 µM	31.5 µM	4.11	15.5 µM	19.8 µM	36.9	21.2	37.4 µM	4.87 µM	36.1 µM	19.9	43 µM	18.4 µM	39.5
O=C1/C(=C/c2ccc(Cl)cc2)N=C(c2ccccc2)N1c1cc(C(F)(F)F)ccc1Cl	24.2 µM	> 100 µM	27.5	87 µM	17.6 µM	57.9 µM	24.9 µM	64.2 µM	20.8	71.8 µM	39.1 µM	> 100	35.7	> 100 µM	28.7 µM	68 µM	31.7	> 100 µM	26.9 µM	99.6
COc1nc2c(c(=O)n1C)CN(c1ccccc1)C(=O)CN2C	> 100 µM	> 100 µM	> 100	> 100 µM	6.25 µM	> 100 µM	> 100 µM	> 100 µM	20	> 100 µM	70 µM	> 100	> 100	> 100 µM	17 µM	> 100 µM	51.1	> 100 µM	> 100 µM	> 100
Oc1c(CN2CCCCC2)ccc2cccnc12	3.72 µM	28.1 µM	6.6	32.8 µM	3.38 µM	14.8 µM	5.23 µM	76.9 µM	7.12	> 100 µM	9.23 µM	> 100	4.33	25 µM	3.36 µM	> 100 µM	3.98	42.9 µM	2.91 µM	83.3
C[C@]1(c2nc3c(C(N)=O)cccc3[nH]2)CCCN1	> 65.8 µM and 74.9 µM	> 100 µM	> 100	> 100 µM	34.2 µM and > 71.3 µM	> 100 µM	23.5 µM and > 75 µM	> 100 µM	> 100	> 100 µM	75.1 µM and > 100 µM	> 100	> 100	> 100 µM	19.5 µM and 10.4 µM	> 90 µM and 51.4 µM	> 100	> 100 µM	99.9 µM and > 100 µM	> 100
Cn1cc(-c2ncnc3ccc(-c4cnc(Cl)c(NS(C)(=O)=O)c4)cc23)c2ccccc21	0.814 µM	9.41 µM	0.812	13.3 µM	0.205 µM	> 100 µM	0.382 µM	> 100 µM	0.361	26.1 µM	0.306 µM	6.89	0.263	2.32 µM	1.24 µM	> 35.9 µM	0.505	10.6 µM	0.959 µM	7.05
